Here are results for 13 compounds from paper PMC3396687, “Moonlighting Peptides with Emerging Function” (PLoS ONE, 2012).

Series [1] has as its system E. coli (DH10B). The class given is cell-based, Escherichia coli. The conditions noted are these: for antibacterial activity (in words): LB, see Table S2, Figure 1A and 1B; for MIC: LB medium, 37°C, 10 h, OD 600 nm, lowest concentration where no visible growth occurred, four independent experiments. The method, then: To evaluate the antibacterial activity of the Iztli peptides, the Escherichia coli DH1OB strain, Δ(mrr-hsd RMS-mcrBC) mcrA recA1 was used.
Serial dilutions of peptides were prepared in sterilized water. These concentrations are reported as the dry weight of each peptide. To determine the actual concentration of these peptides in solution, we estimated the molar absorption coefficient from the absorbance of each peptide at 214 nm using a spectrophotometer HP8452, kindly provided by Dr. Armando Gomez-Puyou. Then, the concentration of each peptide was calculated as: C = A/(L*MAC); where C: concentration (M), A: absorbance (arbitrary unit), L: length of the path of the spectrophotometer cell (cm) and MAC: the molar absorption coefficient (M^−1cm^−1).
The antibacterial activity of the synthetic peptides was examined in sterile 100-well plates (HC2 Pat. Pend., Finland) in a final volume of 200 µl as follows: aliquots (25 µl) of a suspension containing bacteria at a concentration of 10^5 CFU/mL in LB medium were added to 75 µl of water containing the peptide. The mixture was completed by the addition of 100 µl of 2×-concentrated LB medium. The plates were incubated at 37°C with constant orbital shaking for 10 h (at a rate specified by the equipment provider as “High”). Microbial growth was automatically determined by reading every 60 minutes the optical density at 600 nm with an OY Microplate Reader (Bioscreen C, Finland).
The minimum inhibitory concentration (MIC) was determined as the lowest concentration where no visible growth occurred. At least three different concentrations were tested for each peptide to find the corresponding MIC. All MICs were determined from four independent experiments. […]

The test system of series [2] is Human foreskin fibroblasts (HFF) cells. In words: Toxicity against primary cultures of human cells (LIVE/DEAD). The method, then:
Human foreskin fibroblasts (HFF) cells were grown in high glucose DMEM (Invitrogen, Carlsbad, CA) supplemented with 10% fetal bovine serum (Sigma, St. Louis, MO) and penicillin/streptomycin 100 U/ml (Invitrogen, Carlsbad, CA). The cultures were incubated at 37 °C in 95% air and 5% carbon dioxide with 95% humidity. After 24 hr of plating, 15 micro liters of a stock solution of each peptide was added and 72 hr later cell viability was estimated using the LIVE/DEAD cytotoxicity kit (Molecular Probes L-3224, Invitrogen, Carlsbad, CA) according to manufacturer instructions (4 μM Eth D-1 and 2 μM Calcein AM were used). The esterase substrate calcein AM gives a green fluorescent product when hydrolyzed; therefore, cells stained green have esterase activity and consequently an intact membrane capable of retaining the esterase product. Ethidium homodimer-1, an impermeable dye that binds DNA, enters only into compromised cellular membranes commonly observed in death cells.
All these concentrations are the dry weight of each peptide.
Images were taken on a Nikon Eclipse TE300 fluorescence microscope from representative fields. Each peptide was tested in two independent assays, each performed in triplicates.

Series [3] deals with S. cerevisiae WT (BY4741). In words: Area under the growth curve (AUC), wild type control of gene screen. It is filed as cell-based, Saccharomyces cerevisiae. The conditions noted are these: 10 µM peptide, 24 h growth curve; control value of Figure S1. The method, then:
(§1) An early stationary culture for every essay was obtained from a single colony growing overnight in YPD medium. This culture was used to inoculate a fresh YPD medium to reach 0.04 O.D. in a total volume of 200 µL. Every peptide and strain were tested in 96 well plates, each well containing 200 µL, incubating at 30°C with shaking using a Bioscreen C (Oy Growth Curves Ab Ltd, Finland). The activity of these peptides on each strain was determined by following the cultures during 24 hrs and recording the O.D. every hour. Lack of change in O.D. measured during 24 hours was indicative of antifungal activity.
(§2) The cultures were prepared as in the antifungal activity assay described before (see above). To identify the strains lacking a gene required to inhibit in at least 50% the normal growth of the cells, the area under the growth curve (AUC) was calculated using software designed ad hoc in our laboratory. Thus, the ratio of the AUCs of the cells in the absence and in the presence of the peptide was determined; any strain rendering a ratio value between 1.0 and 2.0 was considered to carry a deletion of a critical gene.

Series [4] deals with null mutant of the STE4 gene (BY4741 MATa ∆ste4). In words: Screening for resistant gene deletions: STE4 null mutant. The class given is cell-based, Saccharomyces cerevisiae. The conditions noted are these: 10 µM, Table S1 and Figure S1. The method, then:
as §1, §2

Series [5] relates to bacteria. Conditions: values marked (*), ref 36 ([3] in supplement, del Rio et al., 2001); cited from earlier work. From the text:
Supplement pone.0040125.s019.doc, table 1: Supplementary Table S2. Designed selective antibacterial peptides | column: MIC (µM)

For series [6], the system named is human cells. The conditions noted are these: cited from earlier work. The text has this: Supplement pone.0040125.s019.doc, table 1: Supplementary Table S2. Designed selective antibacterial peptides | column: Toxicity (µM)
For series [7], the system named is MatA cells from Saccharomyces cerevisiae (BY4741). In words: Antifungal activity (optical density growth curves). It is filed as cell-based. Conditions: YPD, 30°C, 24 h, OD and CFU; IP1 10 µM, fIP1 60 µM (Figure 3). The method, then:
as §1

Series [8] concerns isolated mitochondria. Kind of series: Mitochondrial swelling. Conditions: absorbance at 540 nm; IP1 117 µM, fIP1 100 µM, α-pheromone 160 µM (Figure 1C). It is filed as biochemical, Saccharomyces cerevisiae. As to the method: We isolated mitochondria as described in Supporting Information S1 (see section I.2). Swelling of mitochondria was determined as reported before. Briefly, fresh mitochondria were diluted in 1 mL of 0.3 M mannitol, 5 mM MES, pH 6.8 (TEA) and 5 µL of ethanol. After 20 seconds, when optical density was stable, the peptides were added. The absorbance at 540 nm was recorded in a DW2 Aminco spectrophotometer (Olis, Inc, USA) in a split mode with magnetic stirring. A decrease in the absorbance was indicative of mitochondrial swelling. To determine the integrity of mitochondrial membranes, 10% of PEG 10 kDa (final concentration) was used to induce water release from mitochondria.
Mitochondria were obtained as described before. Briefly, yeast was incubated in YPD preculture medium for 24 h at 30° C, with agitation at 250 rpm, then the cells were cultured in YPlac at 30° C for 24 h at 250 rpm to improve respiration. Cells were collected and washed twice by centrifugation. The cells were suspended in cold isolating medium (5 mM MES, 0.6 M mannitol, 0.1% bovine serum albumin; the pH was adjusted to 6.8 with triethanolamine). The cells were disrupted into a Bead-Beater cell homogenizer (Biospec Products, USA) with 0.5 mm diameter glass beads, using three 20 seconds pulses separated by 40 seconds intervals. […] Protein concentration was determined by the Biuret method.

Setting [9] is: 72 hr exposure, calcein AM / ethidium homodimer-1 staining.
Where [10] appears, read: HFF cells, 72 hr exposure, LIVE/DEAD kit, > means no toxicity at the tested concentration, two independent assays in triplicates.

Where two headings read alike, the source gives them in different places. Where no end group is shown, it is not given here.

As to `CSCC[C@H](NC(=O)[C@@H]1CCCN1C(=O)[C@H](CCC(N)=O)NC(=O)CNC(=O)[C@@H]1CCCN1C(=O)[C@H](CCCCN)NC(=O)[C@H](CC(C)C)NC(=O)[C@H](CCC(N)=O)NC(=O)[C@H](CC(C)C)NC(=O)[C@H](Cc1c[nH]c2ccccc12)NC(=O)[C@H](Cc1c[nH]cn1)NC(=O)[C@H](Cc1c[nH]c2ccccc12)NC(=O)[C@H](Cc1ccccc1)NC(=O)[C@H](CCCNC(=N)N)NC(=O)[C@H](CC(N)=O)NC(=O)[C@H](CC(C)C)NC(=O)[C@H](Cc1ccccc1)NC(=O)[C@@H](N)CCCCN)C(=O)N[C@@H](Cc1ccc(O)cc1)C(=O)O` [IP1], in series [1], the “antibacterial activity (in words)” value is recorded as “presented anti-bacterial activity”. Further, the “toxicity on HFF cells (in words)” value in series [2] (setting [9]) is given as “no toxicity”. In series [3], the “area under the growth curve (AUC)” value was found to be 0.09. For the same compound, the “killing activity on STE4 null mutant” value in series [4] is listed as “resistant”.

Broadly, the MIC is the smallest concentration in the dilution series that meets the test's criterion for growth inhibition. “KWKLFKKIEKVGQNIRDGIIKAGPAVAVVGQATQIAK (Cecropin-A; UniProt P01507 27-63, looked up) [Cecropin A]”: the minimum inhibitory concentration (MIC) in series [5] is 0.1 µM. In addition, the Toxicity in series [6] was greater than 50 µM.

As to LKKLKLLLKLL [PH(CeMa)1], in series [2], the Toxicity was greater than 90 µM and the “toxicity on HFF cells (in words)” value is “none of the peptides induced cell death”.

Take HSAKKFGK [PH(SCAP*)5]: in series [1], the MIC is greater than 300 µM. Further, the “toxicity on HFF cells (in words)” value in series [2] (setting [9]) is reported as “not toxic”. The Toxicity in series [2] (setting [10]) is on record as greater than 500 µM.

In turn, KFLHSAKK [PH(SCAP*)3] gave a minimum inhibitory concentration (MIC) in series [1] greater than 300 µM. Further, in series [2] (setting [9]), the “toxicity on HFF cells (in words)” value is given as “not toxic”. In series [2] (setting [10]), this compound displayed a Toxicity greater than 500 µM.

Take “KFLNRF [fIP1, the six residues at the N-terminus of IP1, control peptide]”: the “antifungal (killing) activity” value in series [7] is “did not exhibit any activity”. Also, the mitochondrial swelling activity result in series [8] is recorded as “did not exhibit any activity”.

As to KWKLFKKI [PH(SCAP*)1], the “toxicity on HFF cells (in words)” value in series [2] (setting [9]) is listed as “not toxic”. The Toxicity in series [2] (setting [10]) is greater than 460 µM.

Turning to FLHSAKKF [PH(SCAP*)4], the MIC in series [1] is given as greater than 300 µM. Moreover, in series [2] (setting [9]), the “toxicity on HFF cells (in words)” value is on record as “not toxic”. For the same compound, in series [2] (setting [10]), the Toxicity is greater than 500 µM.

GKFLHSAK [PH(SCAP*)2] yielded an MIC in series [1] greater than 300 µM. Further, the “toxicity on HFF cells (in words)” value in series [2] (setting [9]) is “not toxic”. In series [2] (setting [10]), this compound registered a Toxicity greater than 500 µM.

Turning to RRLKDFWHWLQLKPGQPMY [IP2], in series [1], the MIC was 20 µM and the “antibacterial activity (in words)” value is “presented anti-bacterial activity”. For the same compound, in series [2], the Toxicity was greater than 36 µM and the “toxicity on HFF cells (in words)” value is on record as “no toxicity”.

On to LKKLLKLLL [PH(Magainin)1], for which, in series [2], the Toxicity is greater than 120 µM and the “toxicity on HFF cells (in words)” value is on record as “none of the peptides induced cell death”.

In series [1], GKFLHSAKKFGK [PH(SCAP*)6] displayed a minimum inhibitory concentration (MIC) greater than 300 µM. For the same compound, the “toxicity on HFF cells (in words)” value in series [2] (setting [9]) is recorded as “not toxic”. Also, the Toxicity in series [2] (setting [10]) is on record as greater than 500 µM.

As for GIGKFLHSAKKFGKAFVGEIMNS [Magainin 2], the minimum inhibitory concentration (MIC) in series [5] was 16 µM. In addition, in series [6], the Toxicity was greater than 170 µM.
